{
  "source": "patent US10717997B2",
  "about": "“Method for storing gaseous hydrogen through producing methanoate (formate)” (Johann Wolfgang Goethe-Universität, priority 2013, dated 2020)",
  "system": "cell suspensions of A. woodii",
  "assay": "Formate production by whole cell catalysis, cell suspensions of A. woodii converting H2 and CO2",
  "type": "cell-based, Acetobacterium woodii",
  "conditions": "ETH2120 30 μM",
  "description": "Cell suspensions of A. woodii (1 mg/ml) were incubated using a gas phase of 0.8×10^5 Pa H2 and 0.2×10^5 Pa CO2 (1A). Adding the Na^+ ionophore ETH2120 (30 μM) gives rise to the production of up to 8 mM formate and the production of acetate stopped (1B). For experiments with whole cells, the inventors used cell suspensions of A. woodii for the conversion of H2 and CO2 to formate. The energy metabolism of A. woodii is strictly sodium ion dependent, and the ATP synthase uses Na^+ as the coupling ion. Thus, by omitting sodium ions in the buffer or by adding sodium ionophores (the inventors used the ionophore ETH2120 in this study), it is possible to switch off the energy metabolism specifically. Cells suspended in imidazole buffer (50 mM imidazole, 20 mM MgSO4, 20 mM KCl, 4 mM DTE, pH 7.0) containing 20 mM NaCl converted H2+CO2 to acetate, and only small amounts of formate were produced from a gas phase of 0.8×10^5 Pa II2 and 0.2×10^5 CO2. […] In agreement with the results obtained from the purified enzyme, foimate production was also observed when hydrogen was absent and the electron donor was CO but with lower rates compared to hydrogen as electron donor.",
  "note": "“Also recorded” adds a separate entry of the source.",
  "data": [
    {"smiles": "O=C(COc1ccccc1OCC(=O)N(C1CCCCC1)C1CCCCC1)N(C1CCCCC1)C1CCCCC1", "note": "[ETH2120, N,N,N′,N′-Tetracyclohexyl-1,2-phenylenedioxydiacetamide]", "values": [
      {"measurement": "production of formate (concentration reached)", "setting": "A. woodii cell suspension (1 mg/ml), gas phase 0.8×10^5 Pa H2 and 0.2×10^5 Pa CO2", "result": "up to 8 mM"},
      {"measurement": "acetate production", "setting": "A. woodii cell suspension (1 mg/ml), gas phase 0.8×10^5 Pa H2 and 0.2×10^5 Pa CO2, imidazole buffer with 20 mM NaCl", "result": "stopped; also recorded: ceased almost completely"},
      {"measurement": "initial rate of formate production", "setting": "A. woodii cells in imidazole buffer with 20 mM NaCl, gas phase 0.8×10^5 Pa H2 and 0.2×10^5 CO2", "result": 2, "unit": "μmol/min×mg cell protein"}
    ]}
  ]
}
